Each block holds one molecule with its values, some of them ahead of it.
Legend:
[1] = Metabolic stability in human hepatocytes assessed as half life; type: ADME, cell-based, Hepatocyte
[2] = target: von Hippel-Lindau disease tumor suppressor (Homo sapiens) (UniProt P40337); assay: Binding affinity to 6-His tagged human VHL at 50 uM incubated for 1 hr by HTRF based assay relative to control
[3] = Metabolic stability in HEK293 cells cytosol assessed as half life; type: ADME, subcellular; conditions: human, HEK293 cell cytosol
[4] = Drug metabolism in HEK293 cells cytosol assessed as M-200 metabolite formation incubated for 60 mins; type: ADME, subcellular; conditions: human, 1 h
[5] = Drug metabolism in HEK293 cells cytosol assessed as M+16 metabolite formation incubated for 60 mins; type: ADME, subcellular; conditions: human, 1 h
[6] = Drug metabolism in human hepatocytes assessed as M + 16 metabolite formation incubated for 240 mins by LC-MS/MS analysis; type: ADME, cell-based, Hepatocyte; conditions: 4 h
[7] = Drug metabolism in human hepatocytes assessed as M + 16 metabolite formation incubated for 240 mins in presence of ZPP by LC-MS/MS analysis; type: ADME, cell-based, Hepatocyte; conditions: 4 h
[8] = Drug metabolism in human liver cytosol assessed as M-200 metabolite formation incubated for 60 mins in presence of 100 uM ZPP; type: ADME, subcellular; conditions: 1 h
[9] = Drug metabolism in HEK293 cells cytosol assessed as M+16 metabolite formation incubated for 60 mins in presence of 1 to 30 nM ZPP; type: ADME, subcellular; conditions: human, 1 h
[10] = Drug metabolism in human hepatocytes assessed as M-200 metabolite formation incubated for 240 mins in presence of ZPP by LC-MS/MS analysis; type: ADME, cell-based, Hepatocyte; conditions: 4 h
[11] = Drug metabolism in human liver microsomes assessed as M-200 metabolite formation incubated for 60 mins; type: ADME, Microsome; conditions: 1 h
[12] = Drug metabolism in human liver microsomes assessed as M-200 metabolite formation incubated for 60 mins in presence of 1 nM ZPP; type: ADME, Microsome; conditions: 1 h
[13] = Drug metabolism in human liver microsomes assessed as M-200 metabolite formation incubated for 60 mins in presence of 30 nM ZPP; type: ADME, Microsome; conditions: 1 h
[14] = Drug metabolism in human liver cytosol assessed as M-200 metabolite formation incubated for 60 mins in presence of 30 nM ZPP; type: ADME, subcellular; conditions: 1 h
[15] = Drug metabolism in human hepatocytes assessed as M-200 metabolite formation incubated for 240 mins in presence of 3 uM ZPP by LC-MS/MS analysis; type: ADME, cell-based, Hepatocyte; conditions: 4 h
[16] = Drug metabolism in HEK293 cells cytosol assessed as M-200 metabolite formation incubated for 60 mins in presence of 30 nM ZPP; type: ADME, subcellular; conditions: human, 1 h
[17] = Drug metabolism in HEK293 cells cytosol assessed as M-525 metabolite formation; type: ADME, subcellular; conditions: human

Chain of von Hippel-Lindau disease tumor suppressor (Homo sapiens) (P40337 whole entry, looked up): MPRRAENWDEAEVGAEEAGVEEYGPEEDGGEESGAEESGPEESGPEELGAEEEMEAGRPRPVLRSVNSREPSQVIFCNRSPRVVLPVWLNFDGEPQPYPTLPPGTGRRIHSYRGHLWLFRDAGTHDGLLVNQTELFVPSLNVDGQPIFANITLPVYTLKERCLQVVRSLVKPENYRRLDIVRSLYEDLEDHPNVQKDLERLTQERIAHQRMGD

half-life [1]: 5.58 h
Activity [2]: 35%
Structure (SMILES): Cc1nc(C)c(-c2ccc(-c3c[nH]c([C@@H]4C[C@@H](O)CN4C(=O)[C@@H](N)C(C)(C)C)n3)cc2)s1

half-life [1]: 2.74 h
Activity [2]: 65%
Structure (SMILES): Cc1nc(C)c(-c2ccc([C@H](C)NC(=O)[C@@H]3C[C@@H](O)CN3C(=O)[C@@H](N)C(C)(C)C)cc2)s1.Cl

half-life [3]: 17.1 h
Structure (SMILES): Cc1nc(C)c(-c2ccc(-c3cnc([C@@H]4C[C@@H](O)CN4C(=O)[C@@H](NC(=O)CCCCNC(=O)COc4c(-c5csc(N6CCOCC6)n5)ccc(F)c4F)C(C)(C)C)[nH]3)cc2)s1

Drug metabolism [4]: Metabolite_Notdetected
Drug metabolism [5]: Metabolite_Detected
Structure (SMILES): Cc1ncsc1-c1ccc(-c2cnc([C@@H]3C[C@@H](O)CN3C(=O)[C@@H](NC(=O)CCCCNC(=O)COc3c(-c4csc(N5CCOCC5)n4)ccc(F)c3F)C(C)(C)C)[nH]2)cc1

Drug metabolism [6]: Metabolite_Detected
Drug metabolism [7]: Metabolite_Detected
Drug metabolism [8]: Metabolite_Detected
Drug metabolism [5]: Metabolite_Detected
Drug metabolism [9]: Metabolite_Detected
half-life [1]: 2.01 h
Activity [2]: 73%
Structure (SMILES): Cc1ncsc1-c1ccc([C@H](C)NC(=O)[C@@H]2C[C@@H](O)CN2C(=O)[C@@H](N)C(C)(C)C)cc1

Drug metabolism [10]: Metabolite_Detected
Drug metabolism [6]: Metabolite_Detected
Drug metabolism [7]: Metabolite_Detected
Drug metabolism [11]: Metabolite_Notdetected
Drug metabolism [12]: Metabolite_Notdetected
Drug metabolism [13]: Metabolite_Notdetected
Drug metabolism [14]: Metabolite_Notdetected
Drug metabolism [15]: Metabolite_Notdetected
Drug metabolism [16]: Metabolite_Notdetected
Drug metabolism [17]: Metabolite_Detected
half-life [3]: 2.85 h
Structure (SMILES): Cc1ncsc1-c1ccc([C@H](C)NC(=O)[C@@H]2C[C@@H](O)CN2C(=O)[C@@H](NC(=O)CCCCNC(=O)COc2c(-c3csc(N4CCOCC4)n3)ccc(F)c2F)C(C)(C)C)cc1

half-life [1]: 5.76 h
Activity [2]: 21%
Structure (SMILES): Cc1ncsc1-c1ccc(-c2c[nH]c([C@@H]3C[C@@H](O)CN3C(=O)[C@@H](N)C(C)(C)C)n2)cc1

From ChEMBL document CHEMBL5365476, “VHL-Modified PROteolysis TArgeting Chimeras (PROTACs) as a Strategy to Evade Metabolic Degradation in In Vitro Applications” (J Med Chem, 2023)
